In US12454529B2, “Piperazine cyclic ureas” (SIRONAX LTD., priority 2020, dated 2025):

System: HT-29 cells
Assay: HT-29 cell necrosis/necroptosis inhibition (TNF-α + SMAC mimetic + zVAD-FMK; CellTiter-Glo cell viability)
Assay type: cell-based
Settings: Homo sapiens, HT-29, 20 h, read-out: EC50 (Cell activity; Necrosis/Necroptosis Inhibitory Activity, Compounds 143-323)
Summary of the method: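 HT-29 cells (~5,000/well) were switched to FBS-free McCOY's 5A holding TNF-α (10 ng/ml), SMAC mimetic (6 μM) and zVAD-FMK (10 μM), then dosed with a 10-point 1:3 series for 20 h at 37 °C. CellTiter-Glo luminescence gave viability; geometric mean EC50 from duplicates.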

Structure (SMILES) | EC50 [nM]
Cc1nc(C(=O)N2CCC2)nn1-c1nc(N2CCN(C(=O)N3N=CC[C@H]3c3cc(F)cc(C#N)c3)CC2)ncc1F [Compound 247, (S)-3-(1-(4-(4-(3-(azetidine-1-carbonyl)-5-methyl-1H-1,2,4-triazol-1-yl)-5-fluoropyrimidin-2-yl)piperazine-1-carbonyl)-4,5-dihydro-1H-pyrazol-5-yl)-5-fluorobenzonitrile] | 0.1 to 100

Same assay, conditions: Homo sapiens; HT-29 cells, TNF-α 10 ng/ml + SMAC mimetic 6 μM + zVAD-FMK 10 μM, 20 hours; geometric mean, 10 points in duplicate; read-out: EC50 (Cell activity; Necrosis/Necroptosis Inhibitory Activity, Compounds 1-142)

Structure (SMILES) | EC50 [nM]
N#Cc1cncc([C@@H]2CC=NN2C(=O)N2CCN(c3nccc(-c4cc[nH]n4)n3)CC2)c1 [Compound 38, (S)-5-(1-(4-(4-(1H-pyrazol-3-yl)pyrimidin-2-yl)piperazine-1-carbonyl)-4,5-dihydro-1H-pyrazol-5-yl)nicotinonitrile] | 0.1 to 100
Cc1nn(CC2CCCCO2)c(C)c1-c1nc(N2CCN(C(=O)N3N=CC[C@H]3c3cc(F)cc(C#N)c3)CC2)ncc1F (some centres unmarked) [Compound 137, 3-((58)-1-(4-(4-(3,5-dimethyl-1-((tetrahydro-2H-pyran-2-yl)methyl)-1H-pyrazol-4-yl)-5-fluoropyrimidin-2-yl)piperazine-1-carbonyl)-4,5-dihydro-1H-pyrazol-5-yl)-5-fluorobenzonitrile] | 0.1 to 100
O=C(N1CCN(c2ncc(F)c(-n3cnc(Cl)n3)n2)CC1)N1N=CC[C@H]1c1cc(F)cc(F)c1 [Compound 24, (S)-(4-(4-(3-chloro-1H-1,2,4-triazol-1-yl)-5-fluoropyrimidin-2-yl)piperazin-1-yl)(5-(3,5-difluorophenyl)-4,5-dihydro-1H-pyrazol-1-yl)methanone] | 0.1 to 100
Cc1nn(C)c(C)c1-c1nc(N2CCN(C(=O)N3N=CC[C@H]3c3cc(F)cc(F)c3)CC2)ncc1F [Compound 58, (S)-(5-(3,5-difluorophenyl)-4,5-dihydro-1H-pyrazol-1-yl)(4-(5-fluoro-4-(1,3,5-trimethyl-1H-pyrazol-4-yl)pyrimidin-2-yl)piperazin-1-yl)methanone] | 0.1 to 100
Cn1nccc1-c1nc(N2CCN(C(=O)N3N=CC[C@H]3c3cc(F)cc(F)c3)CC2)ncc1F [Compound 28, (S)-(5-(3,5-difluorophenyl)-4,5-dihydro-1H-pyrazol-1-yl)(4-(5-fluoro-4-(1-methyl-1H-pyrazol-5-yl)pyrimidin-2-yl)piperazin-1-yl)methanone] | 0.1 to 100
Cc1nn(CC(N)=O)c(C)c1-c1nc(N2CCN(C(=O)N3N=CC[C@H]3c3cc(F)cc(C#N)c3)CC2)ncc1F [Compound 123, (S)-2-(4-(2-(4-(5-(3-cyano-5-fluorophenyl)-4,5-dihydro-1H-pyrazole-1-carbonyl)piperazin-1-yl)-5-fluoropyrimidin-4-yl)-3,5-dimethyl-1H-pyrazol-1-yl)acetamide] | 0.1 to 100
Cn1ncc(Cl)c1-c1nc(N2CCN(C(=O)N3N=CC[C@H]3c3cc(F)cc(C#N)c3)CC2)ncc1F [Compound 15, (5)-3-(1-(4-(4-(4-chloro-1-methyl-1H-pyrazol-5-yl)-5-fluoropyrimidin-2-yl)piperazine-1-carbonyl)-4,5-dihydro-1H-pyrazol-5-yl)-5-fluorobenzonitrile] | 0.1 to 100
N#Cc1cc(F)cc([C@@H]2CC=NN2C(=O)N2CCN(c3nccc(-c4cc[nH]n4)n3)CC2)c1 [Compound 34, (5)-3-(1-(4-(4-(1H-pyrazol-3-yl)pyrimidin-2-yl)piperazine-1-carbonyl)-4,5-dihydro-1H-pyrazol-5-yl)-5-fluorobenzonitrile] | 0.1 to 100
NC(=O)c1cnn(-c2ccnc(N3CCN(C(=O)N4N=CC[C@H]4c4cccc(F)c4)CC3)n2)c1 [Compound 17, (S)-1-(2-(4-(5-(3-fluorophenyl)-4,5-dihydro-1H-pyrazole-1-carbonyl)piperazin-1-yl)pyrimidin-4-yl)-1H-pyrazole-4-carboxamide] | 0.1 to 100
N#Cc1cc(F)cc([C@@H]2CC=NN2C(=O)N2CCN(c3ncc(F)c(-c4ncc[nH]4)n3)CC2)c1 [Compound 112, (S)-3-fluoro-5-(1-(4-(5-fluoro-4-(1H-imidazol-2-yl)pyrimidin-2-yl)piperazine-1-carbonyl)-4,5-dihydro-1H-pyrazol-5-yl)benzonitrile] | 0.1 to 100

Same assay, conditions: Homo sapiens; HT-29 cells, TNF-α 10 ng/ml + SMAC mimetic 6 μM + zVAD-FMK 10 μM, 20 hours; geometric mean, 10 points in duplicate; read-out: EC50 (Cell activity; Necrosis/Necroptosis Inhibitory Activity, Compounds 143-323)

Structure (SMILES) | EC50 [nM]
Cc1nn(-c2cc(N3CCN(C(=O)N4N=CC[C@H]4c4cc(F)cc(F)c4)CC3)ncn2)c(C)c1C(N)=O [Compound 281, (S)-1-(6-(4-(5-(3,5-difluorophenyl)-4,5-dihydro-1H-pyrazole-1-carbonyl)piperazin-1-yl)pyrimidin-4-yl)-3,5-dimethyl-1H-pyrazole-4-carboxamide] | 0.1 to 100
Cc1nn(-c2nc(N3CCN(C(=O)N4N=CC[C@H]4c4cc(F)cc(C#N)c4)CC3)ncc2F)c(C)c1C(N)=O [Compound 277, (S)-1-(2-(4-(5-(3-cyano-5-fluorophenyl)-4,5-dihydro-1H-pyrazole-1-carbonyl)piperazin-1-yl)-5-fluoropyrimidin-4-yl)-3,5-dimethyl-1H-pyrazole carboxamide] | 0.1 to 100
Cc1nn(-c2cc(N3CCN(C(=O)N4N=CC[C@H]4c4cncc(F)c4)CC3)ncn2)c(C)c1C(N)=O [Compound 284, (S)-1-(6-(4-(5-(5-fluoropyridin-3-yl)-4,5-dihydro-1H-pyrazole-1-carbonyl)piperazin-1-yl)pyrimidin-4-yl)-3,5-dimethyl-1H-pyrazole-4-carboxamide] | 100 to 1000
Cc1cnc([C@@H]2CC=NN2C(=O)N2CCN(c3ncc(F)c(-n4nc(C#N)nc4C)n3)CC2)s1 [Compound 319, (S)-1-(5-fluoro-2-(4-(5-(5-methylthiazol-2-yl)-4,5-dihydro-1H-pyrazole-1-carbonyl)piperazin-1-yl)pyrimidin-4-yl)-5-methyl-1H-1,2,4-triazole-3-carbonitrile] | 0.1 to 100
CCn1c(C)nn(-c2nc(N3CCN(C(=O)N4N=CC[C@H]4c4cc(F)cc(C#N)c4)CC3)ncc2F)c1=O [Compound 181, (S)-3-(1-(4-(4-(4-ethyl-3-methyl-5-oxo-4,5-dihydro-1H-1,2,4-triazol-1-yl)-5-fluoropyrimidin-2-yl)piperazine-1-carbonyl)-4,5-dihydro-1H-pyrazol-5-yl) fluorobenzonitrile] | 0.1 to 100
N#Cc1cc(F)cc([C@@H]2CC=NN2C(=O)N2CCN(c3ncc(F)c(-n4nccc4C(F)(F)F)n3)CC2)c1 [Compound 304, (S)-3-fluoro-5-(1-(4-(5-fluoro-4-(5-(trifluoromethyl)-1H-pyrazol-1-yl)pyrimidin-2-yl)piperazine-1-carbonyl)-4,5-dihydro-1H-pyrazol-5-yl)benzonitrile] | 0.1 to 100
Cc1nc(C)n(-c2nc(N3CCN(C(=O)N4N=CC[C@H]4c4cnc(C)s4)CC3)ncc2F)n1 [Compound 240, (S)-(4-(4-(3,5-dimethyl-1H-1,2,4-triazol-1-yl)-5-fluoropyrimidin-2-yl)piperazin-1-yl)(5-(2-methylthiazol-5-yl)-4,5-dihydro-1H-pyrazol-1-yl)methanone] | 0.1 to 100
CC(=O)Nc1c(C)nn(-c2nc(N3CCN(C(=O)N4N=CC[C@H]4c4cc(F)cc(F)c4)CC3)ncc2F)c1C [Compound 193, (S)—N-(1-(2-(4-(5-(3,5-difluorophenyl)-4,5-dihydro-1H-pyrazole-1-carbonyl)piperazin-1-yl)-5-fluoropyrimidin-4-yl)-3,5-dimethyl-1H-pyrazol-4-yl)acetamide] | 0.1 to 100
Cc1nc(C)n(-c2nc(N3CCN(C(=O)N4N=CC[C@H]4c4ncc(C)s4)CC3)ncc2F)n1 [Compound 241, (S)-(4-(4-(3,5-dimethyl-1H-1,2,4-triazol-1-yl)-5-fluoropyrimidin-2-yl)piperazin-1-yl)(5-(5-methylthiazol-2-yl)-4,5-dihydro-1H-pyrazol-1-yl)methanone] | 0.1 to 100
